Where “and” joins values, the source holds several entries; their conditions need not be identical. Equal entries are not always repeated.

Holding throughout (assay): cell-based
Test [1] has as its target hNav1.3 (Homo sapiens, UniProt Q9NY46). The note with it: IonWorks Quattro; read-out: IC50 Nav1.3.
Test [2] deals with hNav1.5 (Homo sapiens, UniProt Q14524). The note with it: IonWorks Quattro; read-out: IC50 Nav1.5.
Test [3] deals with hNav1.4 (Homo sapiens, UniProt P35499). Particulars: for IC50: IonWorks Quattro, read-out: IC50 Nav1.4; for Nav1.4/Nav1.7: ratio of IonWorks Quattro IC50 values. A general note: In patch-clamp work, channel activity is measured electrically.
The target of test [4] is hNav1.7 (Homo sapiens, UniProt Q15858). Particulars: IonWorks Quattro; read-out: IC50 Nav1.7.
Chain of hNav1.7 (Q15858 whole entry): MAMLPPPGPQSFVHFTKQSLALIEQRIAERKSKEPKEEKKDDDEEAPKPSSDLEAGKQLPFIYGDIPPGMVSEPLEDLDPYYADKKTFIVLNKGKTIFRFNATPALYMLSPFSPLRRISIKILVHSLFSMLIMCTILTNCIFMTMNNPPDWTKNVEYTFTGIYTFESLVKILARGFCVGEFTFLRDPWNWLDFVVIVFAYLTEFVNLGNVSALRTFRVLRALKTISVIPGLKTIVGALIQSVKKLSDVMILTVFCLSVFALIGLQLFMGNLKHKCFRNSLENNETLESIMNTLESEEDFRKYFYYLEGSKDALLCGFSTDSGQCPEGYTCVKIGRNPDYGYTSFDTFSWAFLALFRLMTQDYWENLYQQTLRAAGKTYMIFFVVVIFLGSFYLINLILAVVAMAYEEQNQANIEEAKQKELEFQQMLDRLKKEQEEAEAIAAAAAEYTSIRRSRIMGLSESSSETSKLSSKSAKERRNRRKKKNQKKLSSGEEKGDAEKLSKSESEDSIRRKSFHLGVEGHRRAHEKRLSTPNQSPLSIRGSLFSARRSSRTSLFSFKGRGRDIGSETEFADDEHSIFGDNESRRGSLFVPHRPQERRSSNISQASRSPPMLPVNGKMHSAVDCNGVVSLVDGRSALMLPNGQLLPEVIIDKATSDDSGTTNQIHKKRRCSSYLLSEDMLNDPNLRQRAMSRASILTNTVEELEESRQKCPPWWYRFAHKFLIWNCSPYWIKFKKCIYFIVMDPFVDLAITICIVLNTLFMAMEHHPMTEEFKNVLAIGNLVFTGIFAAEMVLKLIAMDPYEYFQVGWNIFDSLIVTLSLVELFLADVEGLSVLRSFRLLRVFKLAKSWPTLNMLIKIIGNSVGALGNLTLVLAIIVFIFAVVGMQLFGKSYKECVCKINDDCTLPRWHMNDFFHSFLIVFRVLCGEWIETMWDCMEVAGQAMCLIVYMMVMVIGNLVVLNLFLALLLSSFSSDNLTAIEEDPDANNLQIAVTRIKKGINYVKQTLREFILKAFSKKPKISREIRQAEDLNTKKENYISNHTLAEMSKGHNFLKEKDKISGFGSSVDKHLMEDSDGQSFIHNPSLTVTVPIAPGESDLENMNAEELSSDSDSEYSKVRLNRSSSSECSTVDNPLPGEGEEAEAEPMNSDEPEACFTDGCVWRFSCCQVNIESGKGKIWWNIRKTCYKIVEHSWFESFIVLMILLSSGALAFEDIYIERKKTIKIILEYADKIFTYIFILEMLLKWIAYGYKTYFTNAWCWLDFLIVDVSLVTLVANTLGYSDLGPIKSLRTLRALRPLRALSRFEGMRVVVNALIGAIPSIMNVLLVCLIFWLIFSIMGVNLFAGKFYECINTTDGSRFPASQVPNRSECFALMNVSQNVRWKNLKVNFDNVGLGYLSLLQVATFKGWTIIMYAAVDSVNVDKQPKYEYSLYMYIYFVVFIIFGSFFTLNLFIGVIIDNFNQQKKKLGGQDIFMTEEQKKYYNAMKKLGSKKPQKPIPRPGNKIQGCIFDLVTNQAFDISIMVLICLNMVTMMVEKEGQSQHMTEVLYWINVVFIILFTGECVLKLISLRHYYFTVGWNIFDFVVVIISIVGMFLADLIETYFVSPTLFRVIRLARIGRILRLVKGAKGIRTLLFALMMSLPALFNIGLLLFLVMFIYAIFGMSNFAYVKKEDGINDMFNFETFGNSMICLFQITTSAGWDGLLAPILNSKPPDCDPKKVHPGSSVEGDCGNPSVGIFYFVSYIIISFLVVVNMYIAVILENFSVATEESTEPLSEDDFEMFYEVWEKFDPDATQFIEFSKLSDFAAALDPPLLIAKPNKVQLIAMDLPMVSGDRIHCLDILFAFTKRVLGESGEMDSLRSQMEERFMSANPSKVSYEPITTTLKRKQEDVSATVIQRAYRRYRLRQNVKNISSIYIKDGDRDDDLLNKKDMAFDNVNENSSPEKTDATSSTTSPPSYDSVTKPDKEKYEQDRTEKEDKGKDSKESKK

Chain of hNav1.5 (Q14524 whole entry): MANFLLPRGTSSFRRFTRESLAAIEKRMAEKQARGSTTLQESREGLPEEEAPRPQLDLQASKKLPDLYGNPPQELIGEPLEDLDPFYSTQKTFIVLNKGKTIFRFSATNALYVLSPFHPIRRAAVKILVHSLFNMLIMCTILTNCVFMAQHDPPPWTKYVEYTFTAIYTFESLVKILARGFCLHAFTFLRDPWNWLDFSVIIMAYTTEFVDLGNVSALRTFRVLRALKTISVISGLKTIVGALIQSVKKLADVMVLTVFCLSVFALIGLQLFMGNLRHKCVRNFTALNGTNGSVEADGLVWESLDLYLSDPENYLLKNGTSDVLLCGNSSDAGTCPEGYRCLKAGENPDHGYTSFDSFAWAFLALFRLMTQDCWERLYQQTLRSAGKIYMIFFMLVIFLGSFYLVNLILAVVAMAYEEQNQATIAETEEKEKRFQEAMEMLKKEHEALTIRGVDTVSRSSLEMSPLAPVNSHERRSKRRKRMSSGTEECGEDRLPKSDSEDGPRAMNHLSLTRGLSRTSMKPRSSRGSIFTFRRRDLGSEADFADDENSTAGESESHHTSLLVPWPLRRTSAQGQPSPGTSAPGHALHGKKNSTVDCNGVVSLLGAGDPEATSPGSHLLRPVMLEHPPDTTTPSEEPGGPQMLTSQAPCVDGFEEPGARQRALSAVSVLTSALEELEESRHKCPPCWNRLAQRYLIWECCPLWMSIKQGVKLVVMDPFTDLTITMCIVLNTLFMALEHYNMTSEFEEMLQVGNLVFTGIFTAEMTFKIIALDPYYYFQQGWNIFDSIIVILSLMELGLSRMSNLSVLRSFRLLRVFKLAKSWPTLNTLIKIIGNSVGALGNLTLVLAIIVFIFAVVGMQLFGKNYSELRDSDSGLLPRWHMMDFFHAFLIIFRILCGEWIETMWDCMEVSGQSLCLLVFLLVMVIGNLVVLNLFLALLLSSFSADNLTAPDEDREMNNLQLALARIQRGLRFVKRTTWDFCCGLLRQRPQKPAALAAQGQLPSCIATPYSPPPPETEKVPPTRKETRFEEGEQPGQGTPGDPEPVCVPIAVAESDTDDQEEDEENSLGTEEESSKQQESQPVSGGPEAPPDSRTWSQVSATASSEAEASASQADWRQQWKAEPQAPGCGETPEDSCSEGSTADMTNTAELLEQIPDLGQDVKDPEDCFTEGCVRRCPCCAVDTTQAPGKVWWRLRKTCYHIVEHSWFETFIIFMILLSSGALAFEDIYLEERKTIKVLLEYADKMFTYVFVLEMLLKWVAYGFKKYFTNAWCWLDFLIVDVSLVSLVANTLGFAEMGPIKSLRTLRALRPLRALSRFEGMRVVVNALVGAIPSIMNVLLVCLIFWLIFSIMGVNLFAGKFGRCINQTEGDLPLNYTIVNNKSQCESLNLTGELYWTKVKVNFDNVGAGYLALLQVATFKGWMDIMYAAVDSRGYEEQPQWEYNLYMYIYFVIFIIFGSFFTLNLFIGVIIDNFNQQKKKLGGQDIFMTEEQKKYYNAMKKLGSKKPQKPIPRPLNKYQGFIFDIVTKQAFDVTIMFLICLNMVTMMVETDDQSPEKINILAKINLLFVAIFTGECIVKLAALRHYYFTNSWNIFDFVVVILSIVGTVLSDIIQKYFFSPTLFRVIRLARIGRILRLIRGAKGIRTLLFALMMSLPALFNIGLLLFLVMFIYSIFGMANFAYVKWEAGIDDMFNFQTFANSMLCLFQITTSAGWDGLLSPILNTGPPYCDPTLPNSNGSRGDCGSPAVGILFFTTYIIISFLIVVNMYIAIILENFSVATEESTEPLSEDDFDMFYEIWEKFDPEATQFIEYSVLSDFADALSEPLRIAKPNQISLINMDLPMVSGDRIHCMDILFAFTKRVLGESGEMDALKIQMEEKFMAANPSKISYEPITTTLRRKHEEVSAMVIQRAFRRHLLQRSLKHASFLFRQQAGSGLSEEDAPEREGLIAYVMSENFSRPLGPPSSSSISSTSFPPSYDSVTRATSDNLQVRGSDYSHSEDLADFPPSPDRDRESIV

By IC50 is commonly meant the concentration needed to halve the response being measured. Turning to `CC[C@H](C)[C@H](NC(=O)[C@@H](NC(=O)[C@H](CCCCN)NC(=O)[C@H](CCCNC(=N)N)NC(=O)[C@@H]1CSSC[C@@H]2NC(=O)[C@H](C)NC(=O)[C@H](CCCNC(=N)N)NC(=O)[C@H](CCCCN)NC(=O)[C@H](CO)NC(=O)[C@H](CC(=O)O)NC(=O)[C@@H]3CSSC[C@H](NC(=O)[C@H](CCC(=O)O)NC(=O)[C@H](CC(C)C)NC(=O)CNC(=O)[C@H](Cc4cn(CCCOCCOCCOCCOCCOCCOCCOCCOCCOCCOCCN)nn4)NC(=O)[C@H](CSSC[C@H](NC(=O)[C@@H](N)Cc4ccc(O)cc4)C(=O)N[C@@H](CCC(N)=O)C(=O)N[C@@H](CCCCN)C(=O)N[C@@H](Cc4c[nH]c5ccccc45)C(=O)N[C@@H](CCSC)C(=O)N[C@@H](Cc4c[nH]c5ccccc45)C(=O)N[C@@H]([C@@H](C)O)C(=O)N3)NC2=O)C(=O)N[C@@H](CCCCN)C(=O)N[C@@H](CC(C)C)C(=O)N[C@@H](Cc2c[nH]c3ccccc23)C(=O)N1)[C@@H](C)CC)C(N)=O` [compound 178], the IC50 in test [1] is above 5000 nM; in test [2], 15100 nM; in test [3], above 5000 nM; in test [4] it was 180 nM. The Nav1.4/Nav1.7 in test [3] is 28.

`CC[C@H](C)[C@H](NC(=O)[C@H](Cc1ccc(O)cc1)NC(=O)[C@H](CCCCN)NC(=O)[C@H](CCCNC(=N)N)NC(=O)[C@@H]1CSSC[C@@H]2NC(=O)[C@H](C)NC(=O)[C@H](CCCNC(=N)N)NC(=O)[C@H](CCCCN)NC(=O)[C@H](CO)NC(=O)[C@H](CC(=O)O)NC(=O)[C@@H]3CSSC[C@H](NC(=O)[C@H](CCC(=O)O)NC(=O)[C@H](CC(C)C)NC(=O)CNC(=O)[C@H](CCC(=O)O)NC(=O)[C@H](CSSC[C@H](NC(=O)[C@@H](N)Cc4ccc(O)cc4)C(=O)N[C@@H](CCC(N)=O)C(=O)N[C@@H](CCCCN)C(=O)N[C@@H](CC(N)=O)C(=O)N[C@@H](CCSC)C(=O)N[C@@H](Cc4c[nH]c5ccccc45)C(=O)N[C@@H]([C@@H](C)O)C(=O)N3)NC2=O)C(=O)N[C@@H](CCCCN)C(=O)N[C@@H](CC(C)C)C(=O)N[C@@H](Cc2c[nH]c3ccccc23)C(=O)N1)C(N)=O` [compound 201]: the IC50 in test [1] is above 5000 nM; in test [2], above 5000 nM; in test [3], above 5000 nM; in test [4], 4200 nM and > 5000 nM.

Regarding `CC[C@H](C)[C@H](NC(=O)[C@H](CC(=O)O)NC(=O)[C@H](CCCCN)NC(=O)[C@H](CCCNC(=N)N)NC(=O)[C@@H]1CSSC[C@@H]2NC(=O)[C@H](C)NC(=O)[C@H](CCCNC(=N)N)NC(=O)[C@H](CCCCN)NC(=O)[C@H](CO)NC(=O)[C@H](CC(=O)O)NC(=O)[C@@H]3CSSC[C@H](NC(=O)[C@H](CCC(=O)O)NC(=O)[C@H](CC(C)C)NC(=O)CNC(=O)[C@H](CCC(=O)O)NC(=O)[C@H](CSSC[C@H](NC(=O)[C@@H](N)Cc4ccc(O)cc4)C(=O)N[C@@H](CCC(N)=O)C(=O)N[C@@H](CCCCN)C(=O)N[C@@H](Cc4c[nH]c5ccccc45)C(=O)N[C@@H](CCSC)C(=O)N[C@@H](Cc4c[nH]c5ccccc45)C(=O)N[C@@H]([C@@H](C)O)C(=O)N3)NC2=O)C(=O)N[C@@H](CCCCN)C(=O)N[C@@H](CC(C)C)C(=O)N[C@@H](Cc2c[nH]c3ccccc23)C(=O)N1)C(N)=O` [compound 128], the half-inhibitory concentration (IC50) in test [1] was above 5000 nM; in test [2] it was 13900 nM; in test [3], above 5000 nM; in test [4] it was 1340 nM. Also, the Nav1.4/Nav1.7 in test [3] is listed as 4.

With `CC[C@H](C)[C@H](NC(=O)[C@@H](NC(=O)[C@H](CCCCN)NC(=O)[C@H](CCCNC(=N)N)NC(=O)[C@@H]1CSSC[C@@H]2NC(=O)[C@H](C)NC(=O)[C@H](CCCNC(=N)N)NC(=O)[C@H](CCCCN)NC(=O)[C@H](CO)NC(=O)[C@H](CC(=O)O)NC(=O)[C@@H]3CSSC[C@H](NC(=O)[C@H](CCCNC(=N)N)NC(=O)[C@H](CC(C)C)NC(=O)CNC(=O)[C@H](CCC(=O)O)NC(=O)[C@H](CSSC[C@H](NC(=O)[C@@H](N)CCC(=O)O)C(=O)N[C@@H](CCC(N)=O)C(=O)N[C@@H](CCCCN)C(=O)N[C@@H](Cc4c[nH]c5ccccc45)C(=O)N[C@@H](CCSC)C(=O)N[C@@H](Cc4cccc5ccccc45)C(=O)N[C@@H]([C@@H](C)O)C(=O)N3)NC2=O)C(=O)N[C@@H](CCCCN)C(=O)N[C@@H](CC(C)C)C(=O)N[C@@H](Cc2c[nH]c3ccccc23)C(=O)N1)[C@@H](C)CC)C(N)=O` [compound 281], the IC50 in test [1] is 400 nM and 500 nM; in test [2], above 5000 nM; in test [3], 700 nM and 500 nM; in test [4], 32 nM and 47 nM.

In the case of `CC[C@H](C)[C@H](NC(=O)[C@H](Cc1ccc(O)cc1)NC(=O)[C@H](CCCCN)NC(=O)[C@H](CCCNC(=N)N)NC(=O)[C@@H]1CSSC[C@@H]2NC(=O)[C@H](C)NC(=O)[C@H](CCCNC(=N)N)NC(=O)[C@H](CCCCN)NC(=O)[C@H](CO)NC(=O)[C@H](CC(=O)O)NC(=O)[C@@H]3CSSC[C@H](NC(=O)[C@H](CCC(=O)O)NC(=O)[C@H](CC(C)C)NC(=O)CNC(=O)[C@H](CCC(=O)O)NC(=O)[C@H](CSSC[C@H](NC(=O)[C@@H](N)Cc4ccc(O)cc4)C(=O)N[C@@H](CCC(N)=O)C(=O)N[C@@H](CCCCN)C(=O)N[C@@H](Cc4c[nH]c5ccccc45)C(=O)N[C@@H](CCSC)C(=O)N[C@@H](Cc4c[nH]c5ccccc45)C(=O)N[C@@H]([C@@H](C)O)C(=O)N3)NC2=O)C(=O)N[C@@H](CCCCN)C(=O)N[C@@H](CC(C)C)C(=O)N[C@@H](C(C)C)C(=O)N1)C(N)=O` [compound 223], the IC50 in test [1], in test [2], in test [3] and in test [4] was above 5000 nM in each case.

`CC[C@H](C)[C@H](NC(=O)[C@@H](NC(=O)[C@H](CCCCN)NC(=O)[C@H](CCCNC(=N)N)NC(=O)[C@@H]1CSSC[C@@H]2NC(=O)[C@H](C)NC(=O)[C@H](CCCNC(=N)N)NC(=O)[C@H](CCCCN)NC(=O)[C@H](CO)NC(=O)[C@H](CC(=O)O)NC(=O)[C@@H]3CSSC[C@H](NC(=O)[C@H]([C@@H](C)CC)NC(=O)[C@H](CC(C)C)NC(=O)CNC(=O)[C@H](CCC(=O)O)NC(=O)[C@H](CSSC[C@H](NC(=O)[C@@H](N)Cc4ccc(O)cc4)C(=O)N[C@@H](CCC(N)=O)C(=O)N[C@@H](CCCCN)C(=O)N[C@@H](Cc4c[nH]c5ccccc45)C(=O)N[C@@H](CCSC)C(=O)N[C@@H](Cc4c[nH]c5ccccc45)C(=O)N[C@@H]([C@@H](C)O)C(=O)N3)NC2=O)C(=O)N[C@@H](CCCCN)C(=O)N[C@@H](CC(C)C)C(=O)N[C@@H](Cc2c[nH]c3ccccc23)C(=O)N1)[C@@H](C)CC)C(N)=O` [compound 118]: the IC50 in test [1] came to 2200 nM; in test [2], 8600 nM; in test [3], 1300 nM; in test [4], 90 nM. Moreover, the Nav1.4/Nav1.7 in test [3] worked out at 15.

With `CC[C@H](C)[C@H](NC(=O)[C@H](CC(C)C)NC(=O)[C@H](CCCCN)NC(=O)[C@H](CCCNC(=N)N)NC(=O)[C@@H]1CSSC[C@@H]2NC(=O)[C@H](C)NC(=O)[C@H](CCCNC(=N)N)NC(=O)[C@H](CCCCN)NC(=O)[C@H](CO)NC(=O)[C@H](CC(=O)O)NC(=O)[C@@H]3CSSC[C@H](NC(=O)[C@H](CCC(=O)O)NC(=O)[C@H](CC(C)C)NC(=O)CNC(=O)[C@H](CCC(=O)O)NC(=O)[C@H](CSSC[C@H](NC(=O)[C@@H](N)Cc4ccc(O)cc4)C(=O)N[C@@H](CCC(N)=O)C(=O)N[C@@H](CCCCN)C(=O)N[C@@H](Cc4c[nH]c5ccccc45)C(=O)N[C@@H](CCSC)C(=O)N[C@@H](Cc4c[nH]c5ccccc45)C(=O)N[C@@H]([C@@H](C)O)C(=O)N3)NC2=O)C(=O)N[C@@H](CCCCN)C(=O)N[C@@H](CC(C)C)C(=O)N[C@@H](Cc2c[nH]c3ccccc23)C(=O)N1)C(N)=O` [compound 132], the 50% inhibitory concentration (IC50) was above 5000 nM in test [1], 6700 nM in test [2], above 5000 nM in test [3] and 410 nM in test [4]. The Nav1.4/Nav1.7 in test [3] is recorded as 12.

With `CC[C@H](C)[C@H](NC(=O)[C@H](Cc1ccc(O)cc1)NC(=O)[C@H](CCCCN)NC(=O)[C@H](CCCNC(=N)N)NC(=O)[C@@H]1CSSC[C@@H]2NC(=O)[C@H](C)NC(=O)[C@H](CCCNC(=N)N)NC(=O)[C@H](CCCCN)NC(=O)[C@H](CO)NC(=O)[C@H](CC(=O)O)NC(=O)[C@@H]3CSSC[C@H](NC(=O)[C@H](CCCNC(=N)N)NC(=O)[C@H](CC(C)C)NC(=O)CNC(=O)[C@H](CCC(=O)O)NC(=O)[C@H](CSSC[C@H](NC(=O)[C@@H](N)CCC(=O)O)C(=O)N[C@@H](CCC(N)=O)C(=O)N[C@@H](CCCCN)C(=O)N[C@@H](Cc4c[nH]c5ccccc45)C(=O)N[C@@H](CCSC)C(=O)N[C@@H](Cc4c[nH]c5ccccc45)C(=O)N[C@@H]([C@@H](C)O)C(=O)N3)NC2=O)C(=O)N[C@@H](CCCCN)C(=O)N[C@@H](CC(C)C)C(=O)N[C@@H](Cc2c[nH]c3ccccc23)C(=O)N1)C(N)=O` [compound 278], the IC50 in test [1] was 300 nM; in test [2], above 5000 nM; in test [3], 700 nM; in test [4] it was 46 nM. Besides, in test [3], the Nav1.4/Nav1.7 stood at 16.

As to `CC[C@H](C)[C@H](NC(=O)[C@H](CCCCN)NC(=O)[C@H](CCCNC(=N)N)NC(=O)[C@@H]1CSSC[C@@H]2NC(=O)[C@H](C)NC(=O)[C@H](CCCNC(=N)N)NC(=O)[C@H](CCCCN)NC(=O)[C@H](CO)NC(=O)[C@H](CC(=O)O)NC(=O)[C@@H]3CSSC[C@H](NC(=O)[C@H](CCC(=O)O)NC(=O)[C@H](CC(C)C)NC(=O)CNC(=O)[C@H](CCC(=O)O)NC(=O)[C@H](CSSC[C@H](NC(=O)[C@@H](N)Cc4ccc(O)cc4)C(=O)N[C@@H](CCC(N)=O)C(=O)N[C@@H](CCCCN)C(=O)N[C@@H](Cc4c[nH]c5ccccc45)C(=O)N[C@@H](CCSC)C(=O)N[C@@H](Cc4c[nH]c5ccccc45)C(=O)N[C@@H]([C@@H](C)O)C(=O)N3)NC2=O)C(=O)N[C@@H](CCCCN)C(=O)N[C@@H](CC(C)C)C(=O)N[C@@H](Cc2c[nH]c3ccccc23)C(=O)N1)C(=O)N[C@H](C(=O)N[C@@H](Cc1c[nH]c2ccccc12)C(N)=O)[C@@H](C)CC` [compound 113], the 50% inhibitory concentration (IC50) is above 5000 nM in test [1], 11100 nM in test [2], above 5000 nM in test [3] and 170 nM in test [4]. Moreover, the Nav1.4/Nav1.7 in test [3] stood at 30.

The values are drawn from patent US9636418B2 (priority 2013, dated 2017).
